Results published in patent US10927086B2, “Substituted sulfoximine compounds as indoleamine 2,3-dioxygenase (IDO) inhibitors” (Merck Sharp & Dohme Corp., priority 2017, dated 2021).

Key:
IDO1 [1] = target: T1, IDO1 (Homo sapiens (Human), UniProt P14902); experiment: IDO1 Enzyme Assay; assay type: biochemical; conditions: HIS-tagged recombinant IDO1, fluorescence readout
Method: (§1) Compounds to be tested were serially diluted in ten 3-fold steps in DMSO starting from 10 mM DMSO stocks. Compound dilutions or DMSO alone were then dispensed from the dilution plate into a Greiner black 384-well assay plate (catalog #781086) using an Echo 555 acoustic liquid handler (Labcyte).
HIS-tagged IDO1 protein was recombinantly expressed in Escherichia coli using ZYP5052 autoinduction media supplemented with 500 μM delta aminolevulinic acid for 48 h at 16° C. IDO1 protein was purified using Ni^2+-affinity resin and size exclusion chromatography. Purified protein was then diluted in assay buffer (50 mM Tris pH 7.0, 1% glycerol, 20 μM methylene blue, 0.05% Tween-20, 20 mM sodium ascorbate, 100 units/mL catalase to obtain a final IDO1 concentration of 40 nM. IDO1 solution […] or buffer alone ([…]) were dispensed to wells of the assay plate using a BioRAPTR liquid dispenser (Beckman Coulter). Assay plates containing compound and IDO1 enzyme were incubated at RT for 30 min. Afterwards, 10 μL of 400 μM tryptophan in assay buffer were added to each well of the assay plate using a BioRAPTR liquid dispenser. Plates were incubated at RT for 60 min and reactions were quenched by addition of 10 μL of 0.5 M methyl isonipecotate in dimethyl sulfoxide. Plates were sealed and incubated at 37° C. for 4 h or 50° C. for 2 h. The plates are allowed to cool and then centrifuged for 1 min at 1000×g. The resulting fluoresence was measured in an Envision plate reader (Perkin Elmer) with a 400/25 nm excitation filter and an 510/20 nm emission filter.
Potencies were calculated by linear least squares fit to the four parameter logistic IC50 equation.
Target sequence in this assay (P14902 whole entry, species assumed): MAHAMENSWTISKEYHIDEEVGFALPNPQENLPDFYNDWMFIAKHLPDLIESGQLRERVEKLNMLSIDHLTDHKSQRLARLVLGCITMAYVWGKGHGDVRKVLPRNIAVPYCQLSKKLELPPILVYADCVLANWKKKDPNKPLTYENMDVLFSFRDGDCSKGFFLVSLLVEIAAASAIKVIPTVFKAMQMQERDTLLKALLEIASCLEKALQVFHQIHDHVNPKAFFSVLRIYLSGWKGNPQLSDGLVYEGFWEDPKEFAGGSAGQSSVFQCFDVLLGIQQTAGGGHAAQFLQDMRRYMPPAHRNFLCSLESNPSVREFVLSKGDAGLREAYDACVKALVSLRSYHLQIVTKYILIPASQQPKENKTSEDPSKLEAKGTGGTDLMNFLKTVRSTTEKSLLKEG

IDO1 [2] = target: T1, IDO1; experiment: IDO1 Human Whole Blood Assay; assay type: cell-based; conditions: LPS and IFNγ, 18 h, kynurenine by LC/MS/MS
Method: Compounds to be tested were serially diluted in ten 3-fold steps in DMSO starting from 10 mM. 3 μL of compound dilutions or DMSO alone were then dispensed from the dilution plate into a polypropylene 96-well assay plate containing 97 μL of RPMI using an Echo 555 acoustic liquid handler (Labcyte). LPS and IFNγ was prepared in RPMI to a 10λ of final conc. (1000 ng/mL), final concentration is 100 ng/mL.
Human whole blood was drawn in sodium heparin coated tubes from healthy internal donors. Two hundred forty μL of blood was transferred to each of the wells of a v-bottom 96 well plate. Thirty μL of compound was transferred from intermediate dilution plate, and incubated for 15 min. […] from stimulants was then transferred to blood and mixed thoroughly. Plate was covered with breathable membrane and incubated at 37° C. for overnight (18 h).
On day 2 isotope labeled standard of kynurenine and tryptophan was made in water at 10× concentration and 30 μL was added to the blood at 3 μM final concentration. The assay plates were centrifuged at 300×G for 10 min with no brake to separate plasma from red blood cells. Sixty μL of plasma samples was removed without disturbing red blood cells.
Plasma was diluted with RPMI in 1:1 ratio and proteins were precipitated out with two volume of Acetonitrile. The plates was centrifuged at 4000×G for 60 min. Twenty μL of supernatant was carefully transferred to a 384 well plate contain 40 μL of 0.1% formic acid in water and analyzed by LC/MS/MS.
LC/MS/MS analyses were performed using Thermo Fisher's LX4-TSQ Quantum Ultra system. This system consists of four Agilent binary high-performance liquid chromatography (HPLC) pumps and a TSQ Quantum Ultra triple quadruple MS/MS instrument. For each sample, 5 μL were injected onto an Atlantis T3 column (2.1 mm×150 mm, 3 μm particle size) from Waters. The mobile phase gradient pumped at 0.8 mL/min was used to elute the analytes from the column at 25° C. The elution started at 0% B increasing linearly to 25% B at 6.5 min, holding at 25% for 1 min, re-equilibrating to 10 min. Mobile phase A consisted of 0.1% formic acid in water. Mobile phase B consisted of 0.1% of formic acid in acetonitrile. Data was acquired in positive mode using a HESI interface. The operational parameters for the TSQ Quantum Ultra instrument were a spray voltage of 4000 V, capillary temperature of 380° C., vaporizer temperature 400° C., shealth gas 60 arbitrary units, Aux gas 20 arbitrary units, tube lens 85 and collision gas 1.2 mTorr. SRM chromatograms of kynurenine (QI: 209.2>Q3:94.0) and internal standard (Q1: 215.3>Q3:98.2) were collected for 90 sec. The peak area was integrated by Xcalibur Quan software. The ratios between the kynurenine generated in the reaction and 2D6-Kynurenine spiked-in internal standard were used to generate percentage inhibition and IC50 values. Compounds were titrated and IC50's were calculated by 4 parameter sigmoidal curve fitting formula.
Target sequence in this assay (P14902 whole entry): as the sequence (P14902 whole entry, species assumed) above

IDO1 [3] = target: T1, IDO1; experiment: IDO1 Cellular Assay in Hela Cells Stimulated with IFNγ; assay type: cell-based; conditions: about 48 hours, read-out: IDO1 HELA Cell Assay, IC50
Method: Hela cells were cultured in complete Hela culture medium (90% EMEM, 10% heat-inactivated fetal bovine serum) and expanded to about 1×10^9 cells. The cells were then collected and frozen down at 10×10^6 cells/vial in 1 mL frozen medium (90% complete Hela culture medium, 10% DMSO)
as §1, with “stocks in Echo low volume plate(s).” for “stocks.”, “plate(s)” for “plate”, “into” for “into a”, “#781086, 50 nL/well)” for “#781086)”, “550” for “555”
Target sequence in this assay (P14902 whole entry): as the sequence (P14902 whole entry, species assumed) above
Frozen Hela cells were thawed and transferred into Hela assay medium (99% complete Hela culture medium, 1% Pen/Strep) with 20 mL medium/vial of cells. The cells were spun down at 250 g in a table top centrifuge for 5 min and suspended in same volume of Hela assay medium. The cells were then counted and adjusted to a density of 2×10^5 cells/ml in Hela assay medium. Sterile L-tryptophan were added to the cells with final concentration of 300 uM L-tryptophan. A small aliquot (2 mL/plate) of Hela cells were set aside and were not treated with IFNγ, to serve as the Max-E control. The rest of Hela cells were added with sterile IFNγ (Cat #285-IF, R & D systems) with a final concentration of 100 ng/mL.
Hela cells with and without IFNγ were dispensed to the respective wells of 384-well assay plates containing the compounds. The plates were incubated for about 48 hours at a 37° C., 5% CO2 incubator. Afterwards, 12 μL of 0.5 M methyl isonipecotate in dimethyl sulfoxide were added into each well and the plates were sealed and incubated at 37° C. without CO2 overnight. The plates were centrifuged for 1 min at 200×g. The resulting fluorescence was measured in a Spectramax plate reader (Molecular Devices) with a 400 nm excitation filter and a 510 nm emission filter.
The fluorescence intensity of each well was corrected for the background observed in wells with non-IFNγ-treated cells and was expressed as a fraction of the intensity observed in wells of IFNγ-treated cells and DMSO only. Potencies were calculated by linear least squares fit to the four parameter logistic IC50 equation.

Row | Structure (SMILES) | IC50 (IDO1 [1]) [µM] | IC50 (IDO1 [2]) [µM] | IC50 (IDO1 [3]) [µM]
1 | N=S1(=O)CC(Nc2nonc2/C(=N/O)N[C@H]2Cc3ccc(F)cc32)C1 (single isomer, unassigned) [Example 3] | 0.12 | 1.8 | 0.11
2 | CS(=O)(CCNc1nonc1/C(=N/O)N[C@H]1Cc2ccc(F)cc21)=NC#N (stereo partly drawn) [Example 17, 4-((2-(N-cyano-S-methylsulfonimidoyl)ethyl)amino)-N-((S)-4-fluorobicyclo[4.2.0]octa-1(6),2,4-trien-7-yl)-N′-hydroxy-1,2,5-oxadiazole-3-carboximidamide] | 0.0647 | 0.173 | 0.0537
3 | C[S@@](=N)(=O)CCNc1nonc1/C(=N/O)N[C@H]1Cc2ccc(F)cc21 [Example 2, N—((S)-4-fluorobicyclo[4.2.0]octa-1(6),2,4-trien-7-yl)-N′-hydroxy-4-((2-((R)—S-methylsulfonimidoyl)ethyl)amino)-1,2,5-oxadiazole-3-carboximidamide] | 0.0881 | 0.386 | 0.0609
4 | N=S1(=O)CC(CNc2nonc2/C(=N/O)N[C@H]2Cc3ccc(F)cc32)C1 (single isomer, unassigned) [Example 6] | 0.051 | 0.494 | 0.0921
5 | CS(=O)(/C=C/Nc1nonc1/C(=N/O)N[C@H]1Cc2ccc(F)cc21)=NC#N (stereo partly drawn) [Example 15, 4-(((E)-2-(N-cyano-S-methylsulfonimidoyl)vinyl)amino)-N-((S)-4-fluorobicyclo[4.2.0]octa-1(6),2,4-trien-7-yl)-N′-hydroxy-1,2,5-oxadiazole-3-carboximidamide] | 0.165 | 0.869 | 0.0201
6 | CS(=N)(=O)N1CC(Oc2nonc2/C(=N/O)N[C@H]2Cc3ccc(F)cc32)C1 (single isomer, unassigned) [Example 41] | 0.094 | 0.224 | 0.117
7 | CS(=O)(CCNc1nonc1/C(=N/O)N[C@H]1Cc2ccc(F)cc21)=NC(N)=O (stereo partly drawn) [Example 16, 4-((2-(N-carbamoyl-S-methylsulfonimidoyl)ethyl)amino)-N-((S)-4-fluorobicyclo[4.2.0]octa-1,3,5-trien-7-yl)-N′-hydroxy-1,2,5-oxadiazole-3-carboximidamide] | 0.0551 | 0.843 | 0.0692
8 | CS(=N)(=O)N1CC(O)(CNc2nonc2/C(=N/O)N[C@H]2Cc3ccc(F)cc32)C1 (single isomer, unassigned) [Example 36] | 0.0857 | 1.64 | 0.148
9 | N=S1(=O)CC(Nc2nonc2/C(=N/O)N[C@H]2Cc3ccc(F)cc32)C1 (single isomer, unassigned) [Example 4] | 0.0906 | 1.89 | 0.162
10 | C[S@](=N)(=O)CCNc1nonc1/C(=N/O)N[C@H]1Cc2ccc(F)cc21 [Example 1, N—((S)-4-fluorobicyclo[4.2.0]octa-1(6),2,4-trien-7-yl)-N′-hydroxy-4-((2-((S)—S-methylsulfonimidoyl)ethyl)amino)-1,2,5-oxadiazole-3-carboximidamide] | 0.086 | 0.427 | 0.0558
11 | N=S1(=O)CC(CNc2nonc2/C(=N/O)N[C@H]2Cc3ccc(F)cc32)C1 (single isomer, unassigned) [Example 5] | 0.102 | 0.412 | 0.168
12 | CS(=N)(=O)N1CCO[C@@H](CNc2nonc2/C(=N\O)N[C@@H]2Cc3ccc(F)cc32)C1 (single isomer, unassigned) [Example 63] | 0.098 | 1.2 | 0.073
13 | CON=[S@](C)(=O)CCNc1nonc1/C(=N/O)NC1Cc2ccc(F)cc21 (single isomer, unassigned) [Example 91] | 0.0472 | – | 0.0418
